In patent publication US20090082304A1, “Methods of Treating Hematological Malignancies with Nucleoside Analog Drugs” (NORTHWESTERN UNIVERSITY, priority 2004, published 2009):

Columns and labels:
Type in all cases: cell-based
p38 MAPK = experiment: Immunoblot of phospho-p38 MAPK in MM.1 S cells; conditions: 10 μM
Description: 5×10^6 were cells treated with 10 μM 8-NH2-Ado for the indicated times and harvested. Cell pellets were washed with cold phosphate-buffered saline (PBS; 8.1 g NaCl, 1.14 g Na2HPO4, 0.22 g KCl, and 0.25 g/L KH2PO4) and incubated with lysis buffer (50 mM HEPES, 150 mM NaCl, 1.5 mM MgCl2, 1 mM EDTA pH 8.0, 100 mM NaFI, 10 mM Na Pyrophosphate, 500 μM PMSF, 0.5% Triton X-100, 10% glycerol) at 4° C. for one hour. Lysates were centrifuged at 4° C. for 1 minute at 9000×g, and the supernatants were collected and stored at −20° C. Protein concentration was determined by Bio-Rad protein assay (BioRad Laboratories, Hercules, Calif.). Protein, at a concentration of 30 μg, was mixed with sample buffer (125 mM Tris, pH 6.8, 4% SDS, 20% glycerol, 100 mM Dithiothreitol (DTT), and 0.05% bromophenol blue), and fractionated on a pre-cast 8-16% Tris-Glycine gel (Invitrogen/Novex, Carlsbad, Calif.). Proteins were then transferred to a Polyvinylidene Fluoride (PVDF) membrane (Immobilon-P, Millipore, Bedford, Mass.): Following protein transfer, membranes were blocked with 5% non-fat milk in PBS-T (PBS with 0.1% Tween), incubated with the primary antibody overnight at 4° C. and subsequently with horseradish peroxidase linked secondary antibody (Amersham, Arlington Heights, Ill.). Blots were developed using ECL Plus Chemiluminescent Western Blotting Detection reagent (Amersham, Arlington Heights, Ill.) and the signal was visualized with X-ray film (Hyperfilm, Amersham, Arlington Heights, Ill.). For reprobing purposes, blots were stripped using Restore Western Blot Stripping Buffer from Pierce Biotechnology (Rockford, Ill.). Phospho-MKK3/6 (Ser189/207), phospho-p38 (Thr180/Tyr182), phospho-ATF-2 (Thr69/71), phospho-c-Raf (Ser259), phospho-MEK1/2 (Ser217/221), total MEK1/2, phospho-ERK1/2 (Thr202/Tyr204), total ERK1/2, phospho-p90RSK (Ser380), total RSK, phospho-PDK1 (Ser241), total PDKI, phospho-PTEN (Ser380), total PTEN, phospho-Akt (Ser473), total Akt, phospho-GSK-3β (Ser9), total GSK-3β, phospho-FKHRLI (Thr32)/-FKHR (Thr24), phospho-FKHR (Ser256) primary antibodies were obtained from Cell Signaling Technology (Beverly, Mass.). Total MKK3, total MKK6, total p38, total ATF-2, total c-Raf, total FKHR, total FKHRLI, phospho-JNK and total JNK were purchased from Santa Cruz Biotechnology (Santa Cruz, Calif.). Caspase 3, caspase 9, and PARP antibodies were obtained from Pharmingen (San Diego, Calif.) and anti-MKP1 from Upstate (Lake Placid, N.Y.). Anti-caspase 8 mouse serum was a generous gift of Dr. Marcus Peter (University of Chicago).
MM.1 S cells were exposed to 10 μM 8-NH2-Ado for 0, 0.5, 1, 2, 4 and 6 hours, after which cells were lysed as previously (Example 2). 30 μg of protein was separated by gel electrophoresis, transferred to PVDF membrane, and probed with phosphorylation-specific antibodies to MKK3/6, p38 MAPK, ATF-2, MEK1/2, ERK1/2, p90RSK, JNK1, PDK1, Akt, FKHRL1 and GSK-3β. […] FIGS. 1A, 1B, 1C and 1D provide the results of the blots.
MM. I S cells were treated with 10 μM 8-chloro-adenosine for 0, 0.5, 1, 2, 4 or 6 hours or 10 μM of cytarabine, fludarabine, gemcitabine or 8-amino-adenosine for 4 hours. Cells were lysed as previously described and 30 μg of protein was separated by gel electrophoresis, transferred to PVDF membrane, and probed with phospho-p38 MAPK (Thr180/Tyr182) antibody.
In a parallel approach to test the involvement of cellular phosphatases, we treated MM.1 S cells with varying concentrations of the phosphatase inhibitor okadaic acid in combination with 8-NH2-Ado for 4 hours to assess whether the serine/threonine phosphatases PP2A and PPI are involved.

FKHRL1 = experiment: Immunoblot of phospho-FKHRL1 in MM.1 S cells; conditions: 10 μM
Description: (§1) 5×10^6 were cells treated with 10 μM 8-NH2-Ado for the indicated times and harvested. Cell pellets were washed with cold phosphate-buffered saline (PBS; 8.1 g NaCl, 1.14 g Na2HPO4, 0.22 g KCl, and 0.25 g/L KH2PO4) and incubated with lysis buffer (50 mM HEPES, 150 mM NaCl, 1.5 mM MgCl2, 1 mM EDTA pH 8.0, 100 mM NaFI, 10 mM Na Pyrophosphate, 500 μM PMSF, 0.5% Triton X-100, 10% glycerol) at 4° C. for one hour. Lysates were centrifuged at 4° C. for 1 minute at 9000×g, and the supernatants were collected and stored at −20° C. Protein concentration was determined by Bio-Rad protein assay (BioRad Laboratories, Hercules, Calif.). Protein, at a concentration of 30 μg, was mixed with sample buffer (125 mM Tris, pH 6.8, 4% SDS, 20% glycerol, 100 mM Dithiothreitol (DTT), and 0.05% bromophenol blue), and fractionated on a pre-cast 8-16% Tris-Glycine gel (Invitrogen/Novex, Carlsbad, Calif.). Proteins were then transferred to a Polyvinylidene Fluoride (PVDF) membrane (Immobilon-P, Millipore, Bedford, Mass.): Following protein transfer, membranes were blocked with 5% non-fat milk in PBS-T (PBS with 0.1% Tween), incubated with the primary antibody overnight at 4° C. and subsequently with horseradish peroxidase linked secondary antibody (Amersham, Arlington Heights, Ill.). […]

caspase 8 = experiment: Caspase 8 activation immunoblot in MM.1 S cells; conditions: 10 μM
Description: as §1, with “Calif.).” for “Calif.). Proteins were then transferred to a Polyvinylidene Fluoride (PVDF) membrane (Immobilon-P, Millipore, Bedford, Mass.): Following protein transfer, membranes were blocked with 5% non-fat milk in PBS-T (PBS with 0.1% Tween), incubated with the primary antibody overnight at 4° C. and subsequently with horseradish peroxidase linked secondary antibody (Amersham, Arlington Heights, Ill.).”
MM.1 S cells were exposed to 10 μM 8-NH2-Ado for 0, 0.5, 1, 2, 4 or 6 hours, after which cells were lysed as previously described. […] Total protein levels were also assessed to ensure equal loading and transfer (data not shown). […]

p90RSK = experiment: Immunoblot of phospho-p90RSK in MM.1 S cells; conditions: 10 μM, 0-6 hours
Description: as §1

JNK = experiment: Immunoblot of phospho-JNK in MM.1 S cells; conditions: 10 μM, 0-6 hours
Description: as §1

FKHR = experiment: Immunoblot of phospho-FKHR in MM.1 S cells; conditions: 10 μM, data not shown
Description: as §1

MEK1/2 = experiment: Immunoblot of phospho-MEK1/2 in MM.1 S cells; conditions: 10 μM, 0-6 hours
Description: as §1

MKP1 = experiment: Immunoblot of MKP1 in MM.1 S cells; conditions: 10 μM, 0-6 hours
Description: as §1, with “Calif.).” for “Calif.). Proteins were then transferred to a Polyvinylidene Fluoride (PVDF) membrane (Immobilon-P, Millipore, Bedford, Mass.): Following protein transfer, membranes were blocked with 5% non-fat milk in PBS-T (PBS with 0.1% Tween), incubated with the primary antibody overnight at 4° C. and subsequently with horseradish peroxidase linked secondary antibody (Amersham, Arlington Heights, Ill.).”
One possible mechanism for the decrease in phosphorylation of the kinase molecules and their substrates is an increase in the activity of the phosphatase(s) that regulate them. To test this hypothesis, levels of MKPI, a dual specificity phosphatase that can act to dephosphorylate p38 MAPK, were assessed MM.1 S cells were exposed to 10 μM 8-NH2-Ado for 0, 0.5, 1, 2, 4 and 6 hours after which cells were lysed as previously described. […]

PKC-8 = experiment: Phosphorylation status of PKC-8
[1] = tested on: p38 in RPMI-8226, MDR10V and MM.1 R cells; experiment: Phosphorylation of p38 in additional myeloma cell lines; conditions: data not shown
Description: as §1, with “Calif.).” for “Calif.). Proteins were then transferred to a Polyvinylidene Fluoride (PVDF) membrane (Immobilon-P, Millipore, Bedford, Mass.): Following protein transfer, membranes were blocked with 5% non-fat milk in PBS-T (PBS with 0.1% Tween), incubated with the primary antibody overnight at 4° C. and subsequently with horseradish peroxidase linked secondary antibody (Amersham, Arlington Heights, Ill.).”
The effect of 8-NH2-Ado treatment on phosphorylation levels was assessed in additional myeloma cell lines, to determine whether the drug-induced alterations in protein phosphorylation occur in multiple cells lines or are limited to the MM.1 S myeloma cell line.

## Nc1ncnc2c1nc(N)n2[C@@H]1O[C@H](CO)[C@@H](O)[C@H]1O [8-NH2-Ado, 8-amino-adenosine]
p38 MAPK; 4 hours
  phosphorylation of p38: dramatic loss of phosphorylation
p38 MAPK; after 2 hours
  p38 phosphorylation levels: no appreciable phosphorylation
p38 MAPK; by 1 hour
  p38 phosphorylation levels: dramatically reduced
FKHRL1; at 4 and 6 hours
  FKHRLI phosphorylation: no appreciable phosphorylation
FKHRL1; by 2 hours
  FKHRLI phosphorylation: decreases dramatically
Caspase 8
  time at which cleaved and activated caspase 8 appears: 2 to 4 h
p90RSK
  phosphorylation level of p90RSK: modestly decrease
JNK
  JNK phosphorylation: unaffected
FKHR
  FKHR phosphorylation: similarly affected
MEK1/2
  phosphorylation levels of MEK1/2: appear to increase
MKP1
  MKP1 levels: unaltered
PKC-8
  phosphorylation status of PKC-8: unaltered
[1]
  Phosphorylation levels of p38: decrease in a dose-dependent manner
